The record followed here is patent US8202865B2, “Oxadiazole derivatives” (Merck Serono SA, priority 2007, dated 2012).

For orientation: Ki means the equilibrium dissociation constant of an inhibitor or competing ligand from its target. Low readings indicate a stronger hold on the target, high ones a looser hold on the target. For orientation: EC50 means the midpoint of the concentration-response curve. Low values mean greater potency, high ones weaker potency.

Test [1] concerns the target T1, S1P1 (Homo sapiens, UniProt P21453).
T1 construct: expressed in transfected cells; host or cells: CHO cells (membranes)
The test can be described thus: Receptor binding assay, [33P]sphingosine 1-phosphate, membranes, WGA SPA beads. Particulars: membranes from CHO cells expressing S1P1; 25 pM [33P]S1P; 60 min RT. As to the method:
(§1) Receptor binding assay: Membranes were prepared from CHO cells expressing S1P1 or S1P3 for use in ligand and […] binding studies. Cells were suspended in 50 mM TRIS, pH 7.4, 2 mM EDTA, 250 mM Sucrose (buffer A) and 1× Complete protease inhibitor cocktail (Roche), and disrupted at 4° C. by N2 decompression using a cell disruption bomb (Parr Instrument). Following centrifugation at 1000 RPM for 10 min at 4° C., the supernatant was suspended in buffer A and centrifuged again at 19000 RPM for 60 min at 4° C. The pellet was then suspended in 10 mM HEPES, pH 7.4, 1 mM EDTA, 250 mM Sucrose (Buffer B), and 1× Complete EDTA-free protease inhibitor cocktail and homogenized using a potter. Membranes were flash frozen in liquid N2 and stored at −80° C. [33P]sphingosine 1-phosphate (3000 Ci/mmol; American Radiolabeled Chemicals, Inc.) was added to test compounds in DMSO. Membranes and WGA SPA beads (GE Healthcare) were added to give a final volume of 100 μl in 96-well plates with assay concentrations of 25 pM or 10 pM [33P]sphingosine 1-phosphate (respectively for S1P1 or S1P3), 50 mM HEPES, pH 7.5, 5 mM MgCl2, 100 mM NaCl, 0.4% fatty acid-free BSA, 1-5 μg/well of proteins and 100 μg/well of WGA SPA beads. Binding was performed for 60 min at RT on a shaker and bound radioactivity was measured on a PerkinElmer 1450 MicroBeta counter. Specific binding was calculated by subtracting remaining radioactivity in the presence of 1000-fold excess of unlabeled S1P. Binding data were analyzed using the GraphPad Prism program.

The target in test [2] is T1, S1P1. The test can be described thus: 35S-GTPγS binding, S1P1 membranes. Format: biochemical. Conditions: membranes from CHO cells expressing S1P1; 60 min 30° C. Summed up: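 CHO-cell membranes expressing S1P1 or S1P3 (1-10 μg) incubated with compounds in 20 mM HEPES pH 7.4, 10 mM MgCl2, 140 mM NaCl, saponin, 0.2% BSA, 1.7 μM GDP and [35S]-GTPγS (20 μl of 1.5 nM added), 60 min at 30° C. Bound radioactivity expressed as % of S1P activation.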
(GTPγS resists hydrolysis and so accumulates on activated G proteins.)

Test [3] deals with T2, S1P3 (Homo sapiens, UniProt Q99500).
T2 construct: expressed in transfected cells; host or cells: CHO cells (membranes)
As to the kind of experiment: 35S-GTPγS binding, S1P3 membranes. Format: biochemical. Particulars: membranes from CHO cells expressing S1P3; 60 min 30° C. As for the experimental part:
as §1
Measurements of ^35S-GTPγS Binding: Membranes (1 to 10 μg protein) prepared as described above, were incubated in 96-well Scintiplates (PerkinElmer) with test compounds diluted in DMSO, in 180 μl of 20 mM HEPES, pH 7.4, 10 mM MgCl2, 2 μg/well Saponin, 0.2% fatty acid free BSA (Assay buffer), 140 mM NaCl and 1.7 μM GDP. The assay was initiated with the addition of 20 μl of 1.5 nM [35S]-GTPγS (1100 Ci/mmol; GE Healthcare) in assay buffer. After 60 min incubation at 30° C. on a shaker, plates were centrifuged for 10 min at 2000 RPM. Supernatant was discarded and membrane bound radioactivity was measured on a PerkinElmer 1450 MicroBeta counter. Triplicate samples were averaged and expressed as % response relative to S1P activation in absence of compound (n=2).

Structures can show the parent of a compound that is named as a salt. Some results are limits rather than exact numbers.

T2 sequence (Q99500 whole entry, species assumed): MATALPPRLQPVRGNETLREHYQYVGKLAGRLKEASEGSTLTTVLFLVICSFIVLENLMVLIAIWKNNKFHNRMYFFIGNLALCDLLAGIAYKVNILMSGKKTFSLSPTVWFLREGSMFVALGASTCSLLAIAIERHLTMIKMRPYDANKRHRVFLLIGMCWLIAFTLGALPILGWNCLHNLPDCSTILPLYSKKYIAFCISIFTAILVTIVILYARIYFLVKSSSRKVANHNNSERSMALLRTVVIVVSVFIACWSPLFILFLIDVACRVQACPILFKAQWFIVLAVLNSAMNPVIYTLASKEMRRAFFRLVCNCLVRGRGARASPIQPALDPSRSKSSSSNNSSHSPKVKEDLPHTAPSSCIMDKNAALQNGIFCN
T1 sequence (P21453 whole entry, species assumed): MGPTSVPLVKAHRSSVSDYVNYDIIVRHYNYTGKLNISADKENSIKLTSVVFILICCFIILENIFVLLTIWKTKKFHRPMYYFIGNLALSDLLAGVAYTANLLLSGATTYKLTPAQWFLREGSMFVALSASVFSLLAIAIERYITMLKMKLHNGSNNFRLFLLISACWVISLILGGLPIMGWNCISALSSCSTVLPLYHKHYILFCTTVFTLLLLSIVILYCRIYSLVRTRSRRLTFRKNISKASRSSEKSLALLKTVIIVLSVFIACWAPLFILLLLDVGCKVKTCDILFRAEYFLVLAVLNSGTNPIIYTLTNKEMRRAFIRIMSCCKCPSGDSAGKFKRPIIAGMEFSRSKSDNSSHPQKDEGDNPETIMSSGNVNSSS

In the case of `O=C(O)c1ccc(-c2noc(-c3ccc(-c4ccccc4C(F)(F)F)cc3)n2)cc1F` [Example 1, 2-fluoro-4-{5-[2′-(trifluoromethyl)biphenyl-4-yl]-1,2,4-oxadiazol-3-yl}benzoic acid], in test [1], the affinity corresponds to a Ki of 2470 nM.

As to `Cc1cccc(C)c1-c1ccc(-c2nc(-c3ccc(C(=O)O)c(F)c3)no2)cc1` [Example 3, 4-[5-(2′,6′-dimethylbiphenyl-4-yl)-1,2,4-oxadiazol-3-yl]-2-fluorobenzoic acid], the inhibition constant Ki in test [1] is 2600 nM. Regarding `COc1ccccc1-c1ccc(-c2nc(-c3ccc(C(=O)O)c(F)c3)no2)cc1C` [Example 7, 2-fluoro-4-[5-(2′-methoxy-2-methylbiphenyl-4-yl)-1,2,4-oxadiazol-3-yl]benzoic acid], the EC50 in test [2] is 924 nM; in test [3], over 30000 nM. Consider `Cc1ccccc1-c1ccc(-c2nc(-c3ccc(C(=O)O)c(F)c3)no2)cc1[N+](=O)[O-]` [Example 11, 2-fluoro-4-[5-(2′-methyl-2-nitrobiphenyl-4-yl)-1,2,4-oxadiazol-3-yl]benzoic acid], for which the figures for the EC50 in test [2] and in test [3] were 645 nM and over 30000 nM, respectively.

On to `CC1CCCCN1c1ccc(-c2nc(-c3ccc(C(=O)O)c(F)c3)no2)cc1[N+](=O)[O-]` (stereo not shown) [Example 15, 2-fluoro-4-{5-[4-(2-methylpiperidin-1-yl)-3-nitrophenyl]-1,2,4-oxadiazol-3-yl}benzoic acid], for which the 50% effective concentration (EC50) is 1220 nM in test [2] and over 30000 nM in test [3]. In test [1], `CC(C)COc1ncc(-c2nc(-c3ccc(C(=O)O)c(F)c3)no2)cc1Cl` [Example 34, 4-[5-(5-chloro-6-isobutoxypyridin-3-yl)-1,2,4-oxadiazol-3-yl]-2-fluorobenzoic acid] returned a Ki of 2930 nM. Further, in test [2], the EC50 worked out at 4990 nM. For `COCc1cc(-c2nc(-c3ccc(C(=O)O)c(F)c3)no2)ccc1-c1ccccc1C` [Example 35, 2-fluoro-4-{5-[2-(methoxymethyl)-2′-methylbiphenyl-4-yl]-1,2,4-oxadiazol-3-yl}benzoic acid], in that order: 10 nM and 30 nM.

Compound `CC(C)Oc1ncc(-c2nc(-c3ccc(C(=O)O)c(F)c3)no2)cc1Cl` [Example 36, 4-[5-(5-chloro-6-isopropoxypyridin-3-yl)-1,2,4-oxadiazol-3-yl]-2-fluorobenzoic acid] registered a Ki in test [1] of 530 nM. In other words, the sub-micromolar range. Turning to `CC1CCCCN1c1ccc(-c2nc(-c3ccc(S(N)(=O)=O)cc3)no2)cc1NS(C)(=O)=O` (stereo not shown) [Example 37, 4-(5-{4-(2-methylpiperidin-1-yl)-3-[(methylsulfonyl)amino]phenyl}-1,2,4-oxadiazol-3-yl)benzenesulfonamide], the inhibition constant (Ki) in test [1] was determined as 10 nM. The compound further had an EC50 in test [2] of 1.6 nM.

In the case of `CCC(C)Oc1ncc(-c2nc(-c3ccc(OCC(=O)O)c(F)c3)no2)cc1Cl` (stereo not shown) [Example 50, {4-[5-(6-sec-butoxy-5-chloropyridin-3-yl)-1,2,4-oxadiazol-3-yl]-2-fluorophenoxy}acetic acid], in test [1], the affinity corresponds to a Ki of 50 nM. In test [2], it took 261 nM to reach a half-maximal effect (EC50). As to `CC(C)Oc1ncc(-c2nc(-c3ccc(OCC(=O)O)c(F)c3)no2)cc1Cl` [Example 53, {4-[5-(5-chloro-6-isopropoxypyridin-3-yl)-1,2,4-oxadiazol-3-yl]-2-fluorophenoxy}acetic acid], the concentration for a half-maximal effect (EC50) in test [2] was 294 nM; in test [3] it was over 20000 nM. For `Cc1ccccc1-c1ccc(-c2nc(-c3ccc(C(=O)NCC(=O)O)c(F)c3)no2)cc1C` [Example 54, N-{4-[5-(2,2′-dimethylbiphenyl-4-yl)-1,2,4-oxadiazol-3-yl]-2-fluorobenzoyl}glycine], in that order: 168 nM and 6430 nM. For `Cc1ccccc1-c1ccc(-c2nc(-c3ccc(C(=O)NCCC(=O)O)c(F)c3)no2)cc1C` [Example 55, N-{4-[5-(2,2′-dimethylbiphenyl-4-yl)-1,2,4-oxadiazol-3-yl]-2-fluorobenzoyl}-beta-alanine], in that order: 53 nM and 12600 nM. The compound `CC1CCCCN1c1ccc(-c2nc(-c3cccc(CN(C)CC(=O)O)c3)no2)cc1NS(C)(=O)=O` (stereo not shown) [Example 57, N-methyl-N-[3-(5-{4-(2-methylpiperidin-1-yl)-3-[(methylsulfonyl)amino]phenyl}-1,2,4-oxadiazol-3-yl)benzyl]glycine, Hydrochloride salt] had an inhibition constant (Ki) in test [1] of 6 nM. For the same compound, the midpoint of the response in test [2], the EC50, lay at 4 nM. In the case of `COCc1ccccc1-c1ccc(-c2nc(-c3ccc(C(=O)O)c(F)c3)no2)cc1COC` [Example 85, 4-{5-[2,2′-bis(methoxymethyl)biphenyl-4-yl]-1,2,4-oxadiazol-3-yl}-2-fluorobenzoic acid], the EC50 in test [2] worked out at 556 nM; in test [3], 2300 nM. Turning to `COCc1cc(-c2nc(-c3ccc(C(=O)NCC(=O)OC)c(F)c3)no2)ccc1-c1ccccc1C` [Example 122, Methyl N-(2-fluoro-4-{5-[2-(methoxymethyl)-2′-methylbiphenyl-4-yl]-1,2,4-oxadiazol-3-yl}benzoyl)glycinate], the affinity in test [1] corresponds to a Ki of 0.9 nM. The compound further gave an EC50 in test [2] of 2.5 nM.

`COCc1cc(-c2nc(-c3cccc(OCC(=O)O)c3)no2)ccc1-c1ccccc1C` [Example 167, (3-{5-[2-(methoxymethyl)-2′-methylbiphenyl-4-yl]-1,2,4-oxadiazol-3-yl}phenoxy)acetic acid] came in with a Ki in test [1] of 10 nM. For the same compound, in test [2], a half-maximal effect (EC50) was put at 22.4 nM.

`COCc1cc(-c2nc(-c3ccc(C(=O)NCCC#N)c(F)c3)no2)ccc1-c1ccccc1C` [Example 173, N-(2-cyanoethyl)-2-fluoro-{5-[2-(methoxymethyl)-2′-methylbiphenyl-4-yl]-1,2,4-oxadiazol-3-yl}benzamide] displayed a Ki in test [1] of 2 nM. Further, the midpoint of the response in test [2], the EC50, lay at 6 nM.

In turn, `COCCN(C)Cc1cccc(-c2noc(-c3ccc(-c4ccccc4C)c(COC)c3)n2)c1` [Example 185, 2-methoxy-N-(3-{5-[2-(methoxymethyl)-2′-methylbiphenyl-4-yl]-1,2,4-oxadiazol-3-yl}benzyl)-N-methylethanamine, Hydrochloride salt] registered an inhibition constant Ki in test [1] of 7 nM. The half-maximal effective concentration (EC50) in test [2] stood at 5 nM.

Turning to `COCc1cc(-c2nc(-c3cccc(CNCCO)c3)no2)ccc1-c1ccccc1C` [Example 187, 2-[(3-{5-[2-(methoxymethyl)-2′-methylbiphenyl-4-yl]-1,2,4-oxadiazol-3-yl}benzyl)amino]ethanol, Hydrochloride salt], in test [2], the EC50 was 2 nM. As for `COCCNCc1cccc(-c2noc(-c3ccc(-c4ccccc4C)c(COC)c3)n2)c1` [Example 188, 2-methoxy-N-(3-{5-[2-(methoxymethyl)-2′-methylbiphenyl-4-yl]-1,2,4-oxadiazol-3-yl}benzyl)ethanamine, Hydrochloride salt], in test [2], the concentration giving a half-maximal response (EC50) was 4 nM. For the compound `COCc1cc(-c2nc(-c3cccc(CCO)c3)no2)ccc1-c1ccccc1C` [Example 190, 2-(3-{5-[2-(methoxymethyl)-2′-methylbiphenyl-4-yl]-1,2,4-oxadiazol-3-yl}phenyl)ethanol], the Ki in test [1] is 4.3 nM. Further, the EC50 in test [2] stood at 0.7 nM. `COCc1cc(-c2nc(-c3ccc(CO)cc3)no2)ccc1-c1ccccc1C` [Example 191, (4-{5-[2-(methoxymethyl)-2′-methylbiphenyl-4-yl]-1,2,4-oxadiazol-3-yl}phenyl)methanol]: in test [1], the Ki stood at 7 nM. The compound further came in with an EC50 in test [2] of 2.1 nM.

Consider `COCCOCc1cccc(-c2noc(-c3ccc(-c4ccccc4C)c(COC)c3)n2)c1` [Example 192], for which a half-maximal response in test [2] (EC50) required 6.1 nM. `COCc1cc(-c2nc(-c3cccc(COCCO)c3)no2)ccc1-c1ccccc1C` [Example 193, 2-[(3-{5-[2-(methoxymethyl)-2′-methylbiphenyl-4-yl]-1,2,4-oxadiazol-3-yl}benzyl)oxy]ethanol] yielded a concentration giving a half-maximal response (EC50) in test [2] of 1.8 nM.
